Values after ≈ are worked out from the molar mass of the structure shown.
Assays:
[1] = system: Candida albicans (ATCC 10231); experiment: Anti-Candida albicans activity, broth microdilution MIC; assay type: cell-based; details: Candida albicans, ATCC10231; 24 h of incubation
Method: (§1) The dermatophytes used in this study were Epidermophyton floccosum var. floccosum (Netherlands) CBS 358.93 strain, Trichophyton tonsurans (Netherlands) CBS 483.76 strain, Trichophyton mentagrophytes (Netherlands) CBS 160.66 strain, Microsporum canis (Iran) CBS 131,110 strain, and Microsporum gypseum (Iran) CBS 130,948 strain. All dermatophytes were maintained at 4 °C as agar slants on SDA. Candida albicans (ATCC 10231) was maintained at 4 °C on SDA plate.
The suspension of Candida albicans consists of the dispersion of an aliquot in 5 mL of sterilized water. The compounds and fluconazole, used as a positive control, were solubilized in DMSO (12.80 mg/mL) as stock solutions. Minimum inhibitory concentration (MIC) was performed by the broth microdilution method according to the approved standard M27-A3, 2008 [NCCLS] of the Clinical and Laboratory Standards Institute/National Committee for Clinical Laboratory Standards (CLSI/NCCLS), as described previously.
Candida is a strain of fungi known to transmit infections to different parts of the human body, including the skin [43], which is why the synthesized compounds have also been tested against Candida Albicans (ATCC 10231). For each of them the minimum inhibitory concentration (MIC) was determined by the broth microdilution method using RPMI 1640 + MOPS as culture medium. […] Fluconazole was used as a positive control drug. […] Similarly to the results observed on dermatophytes, therefore, the unsubstituted compounds in position 6 of benzimidazole gave activity on yeasts, except for compound 8a.

[2] = system: Microsporum gypseum; experiment: Antidermatophyte activity, plaque growth inhibition; assay type: cell-based, Microsporum gypseum CBS 130,948; details: Nannizzia gypsea; 100 μg/mL, SDA; read-out: % Inhibition Growth M. gypseum
Method: as §1
(§2) The in vitro antifungal activity against the five selected dermatophytes was evaluated, as previously described, using the plaque growth inhibition method. All compounds were evaluated at the final concentration of 100 µg/mL. The percentages of growth inhibition according to Equation (5) were calculated as the average of three different experiments. I = [(C − T)/C] × 100%,(5) where I is the percentage value of growth inhibition, C is the measure of the diameter of the control circular mycelial inoculum (mm) and T is the extended diameter of the treated mycelial inoculum (mm).
(§3) All synthesized benzothiazole derivatives were evaluated to evaluate their in vitro antifungal activity against the five pathogenic dermatophytes that cause the most common dermatomycoses: Microsporum gypseum, Microsporum canis, Trichophyton mentagrophytes, Trichophyton tonsurans and Epidermophyton floccosum. All compounds were tested at a concentration of 100 µg/mL in DMSO, to evaluate the ability to inhibit the growth of dermatophyte cultures in Sabouraud Dextrose Agar (SDA). Briefly, room temperature incubation was performed and dermatophyte inhibition assessed by measuring the colony diameter at each disc for 7 days. The results are shown in Table 3 and were determined as the average of three different experiments.

[3] = system: Trichophyton mentagrophytes; experiment: as above; assay type: cell-based, Trichophyton mentagrophytes CBS 160.66; details: 100 μg/mL, SDA, read-out: % Inhibition Growth T. mentagrophytes
Method: as §1, §2, §3

[4] = system: Trichophyton tonsurans; experiment: as above; assay type: cell-based, Trichophyton tonsurans CBS 483.76; details: 100 μg/mL, SDA, read-out: % Inhibition Growth T. tonsurans
Method: as §1, §2, §3

[5] = system: Epidermophyton floccosum; experiment: as above; assay type: cell-based, Epidermophyton floccosum var. floccosum CBS 358.93; details: 100 μg/mL, SDA, read-out: % Inhibition Growth E. floccosum
Method: as §1, §2, §3

[6] = system: Microsporum canis; experiment: as above; assay type: cell-based, Microsporum canis CBS 131,110; details: 100 μg/mL, SDA, read-out: % Inhibition Growth M. canis
Method: as §1, §2, §3

OC(Cn1cncn1)(Cn1cncn1)c1ccc(F)cc1F [Fluconazole, reference compound]
MIC [1]: 0.5 µg/mL (≈ 1.63 µM) | inhibition at 100 µg/mL [2]: 18.2 ± 0.9% | inhibition at 100 µg/mL [3]: 3.75 ± 0.24% | inhibition at 100 µg/mL [4]: 18.7 ± 0.62% | inhibition at 100 µg/mL [5]: 0.12 ± 0.004% | inhibition at 100 µg/mL [6]: 30.1 ± 0.4%

— article PMC8869097, “Benzothiazole Derivatives as Multifunctional Antioxidant Agents for Skin Damage: Structure–Activity Relationship of a Scaffold Bearing a Five-Membered Ring System” (Antioxidants, 2022)
